{"source": "paper PMC6811774", "about": "“Potent, selective, and subunit‐dependent activation of TRPC5 channels by a xanthine derivative” (British Journal of Pharmacology, 2019)", "key": {"WT HEK 293 cells": {"test_system": "WT HEK 293 cells", "assay": "Whole-cell patch-clamp in WT HEK 293 cells", "type": "cell-based, human", "conditions": "AM237 1–100 nM; EA 30 nM", "method": "For electrophysiology experiments, cells were plated at a low density of 20–30% onto round or square glass coverslips (13 mm diameter or 5 × 5 mm), and TRPC expression in HEK T‐REx was induced with 1 μg·ml^−1 tetracycline 24 hr before experimentation. Experiments were carried out at room temperature. Extracellular solution consisted of SBS. Patch‐clamp recordings were performed in whole‐cell mode (Figure S7) and in excised outside‐out patch mode under voltage clamp at room temperature using 2–4 MΩ patch pipettes fabricated from borosilicate glass capillaries with an outside diameter of 1 mm and an inside diameter of 0.58 mm (Harvard Apparatus). The voltage protocol comprised voltage ramps applied from −100 to +100 mV every 10 s from a holding potential of 0 mV. […] All solutions were filtered using a 0.2 μm filter (Sartorius, UK)."}, "TRPC6": {"target": "T1, TRPC6 (Homo sapiens, UniProt Q9Y210)", "T1 construct": "expressed in transfected cells; host or cells: WT HEK 293 (transient, jetPRIME; pcDNA3)", "T1 sequence (Q9Y210 1-931)": "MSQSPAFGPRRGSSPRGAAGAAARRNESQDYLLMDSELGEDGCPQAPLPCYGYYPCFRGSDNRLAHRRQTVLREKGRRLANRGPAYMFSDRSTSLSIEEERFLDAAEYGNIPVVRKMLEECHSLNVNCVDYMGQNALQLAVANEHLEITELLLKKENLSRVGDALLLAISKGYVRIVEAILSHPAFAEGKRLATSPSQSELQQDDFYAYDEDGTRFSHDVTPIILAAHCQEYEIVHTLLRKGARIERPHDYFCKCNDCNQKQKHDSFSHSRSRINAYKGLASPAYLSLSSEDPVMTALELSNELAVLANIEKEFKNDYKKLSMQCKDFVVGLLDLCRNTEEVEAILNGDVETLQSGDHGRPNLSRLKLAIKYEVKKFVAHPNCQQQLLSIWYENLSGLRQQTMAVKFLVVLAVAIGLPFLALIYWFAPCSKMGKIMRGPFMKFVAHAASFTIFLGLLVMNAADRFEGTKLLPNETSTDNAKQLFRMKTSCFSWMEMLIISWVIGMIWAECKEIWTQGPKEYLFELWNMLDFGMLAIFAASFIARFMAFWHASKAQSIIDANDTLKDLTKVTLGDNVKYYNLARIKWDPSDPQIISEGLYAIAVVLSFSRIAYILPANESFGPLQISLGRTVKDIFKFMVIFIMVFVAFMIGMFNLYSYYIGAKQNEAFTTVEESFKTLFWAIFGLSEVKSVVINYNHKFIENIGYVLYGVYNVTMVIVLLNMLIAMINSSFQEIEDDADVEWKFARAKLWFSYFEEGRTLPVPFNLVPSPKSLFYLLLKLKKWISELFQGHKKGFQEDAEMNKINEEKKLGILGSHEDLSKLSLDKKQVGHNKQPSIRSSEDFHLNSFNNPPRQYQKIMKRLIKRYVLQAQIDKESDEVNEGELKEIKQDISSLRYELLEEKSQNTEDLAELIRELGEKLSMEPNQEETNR", "assay": "[Ca2+]i selectivity assay, WT HEK 293 cells transiently transfected with hTRPC6, OAG activation", "type": "cell-based", "conditions": "300 nM AM237; 100 μM OAG"}, "TRPC4:C1 channels": {"target": "TRPC4:C1 channels (Homo sapiens, UniProt P48995+Q9UBN4)", "sequence (Q9UBN4 whole entry)": "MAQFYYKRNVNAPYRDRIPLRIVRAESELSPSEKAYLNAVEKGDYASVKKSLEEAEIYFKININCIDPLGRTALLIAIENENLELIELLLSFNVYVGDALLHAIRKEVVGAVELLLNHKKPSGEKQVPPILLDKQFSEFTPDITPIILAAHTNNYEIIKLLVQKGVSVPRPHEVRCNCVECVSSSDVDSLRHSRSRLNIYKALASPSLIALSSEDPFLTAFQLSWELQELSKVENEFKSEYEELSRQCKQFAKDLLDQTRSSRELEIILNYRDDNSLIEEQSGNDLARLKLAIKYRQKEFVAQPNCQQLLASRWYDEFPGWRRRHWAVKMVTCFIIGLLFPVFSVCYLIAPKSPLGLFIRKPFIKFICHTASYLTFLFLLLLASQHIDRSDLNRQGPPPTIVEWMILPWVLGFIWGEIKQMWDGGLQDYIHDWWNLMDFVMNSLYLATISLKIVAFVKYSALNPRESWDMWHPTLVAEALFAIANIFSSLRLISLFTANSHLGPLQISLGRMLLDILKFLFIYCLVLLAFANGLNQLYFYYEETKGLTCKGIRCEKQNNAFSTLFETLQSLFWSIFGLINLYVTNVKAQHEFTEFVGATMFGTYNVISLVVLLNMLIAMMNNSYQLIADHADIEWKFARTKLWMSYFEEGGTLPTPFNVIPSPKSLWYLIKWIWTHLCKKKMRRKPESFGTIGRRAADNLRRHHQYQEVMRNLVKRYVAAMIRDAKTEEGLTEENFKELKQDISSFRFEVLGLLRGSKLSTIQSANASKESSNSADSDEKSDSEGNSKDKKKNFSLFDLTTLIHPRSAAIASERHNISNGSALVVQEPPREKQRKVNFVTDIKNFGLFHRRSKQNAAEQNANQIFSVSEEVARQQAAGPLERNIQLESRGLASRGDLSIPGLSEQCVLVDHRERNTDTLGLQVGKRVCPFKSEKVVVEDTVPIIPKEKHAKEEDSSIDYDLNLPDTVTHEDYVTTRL", "sequence (P48995 whole entry)": "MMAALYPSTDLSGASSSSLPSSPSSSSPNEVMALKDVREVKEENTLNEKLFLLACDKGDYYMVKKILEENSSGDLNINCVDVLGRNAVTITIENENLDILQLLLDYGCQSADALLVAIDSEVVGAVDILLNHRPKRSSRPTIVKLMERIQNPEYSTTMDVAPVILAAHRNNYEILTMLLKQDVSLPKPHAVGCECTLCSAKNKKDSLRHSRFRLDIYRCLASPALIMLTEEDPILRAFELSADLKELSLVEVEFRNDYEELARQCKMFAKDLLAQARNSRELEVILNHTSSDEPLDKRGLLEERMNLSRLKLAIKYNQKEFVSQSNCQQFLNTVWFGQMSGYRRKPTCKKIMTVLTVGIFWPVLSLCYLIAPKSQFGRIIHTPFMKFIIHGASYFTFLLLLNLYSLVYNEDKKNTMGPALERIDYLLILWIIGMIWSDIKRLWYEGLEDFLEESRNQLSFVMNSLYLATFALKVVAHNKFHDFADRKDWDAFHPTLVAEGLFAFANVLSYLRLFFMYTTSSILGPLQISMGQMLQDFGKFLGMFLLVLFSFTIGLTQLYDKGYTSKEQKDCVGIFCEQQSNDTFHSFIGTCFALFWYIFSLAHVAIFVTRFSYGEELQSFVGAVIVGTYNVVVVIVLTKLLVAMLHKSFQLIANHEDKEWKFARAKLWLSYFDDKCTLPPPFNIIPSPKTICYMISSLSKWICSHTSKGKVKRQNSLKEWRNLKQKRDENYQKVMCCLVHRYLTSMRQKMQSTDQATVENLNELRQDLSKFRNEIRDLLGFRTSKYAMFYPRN", "assay": "Excised outside-out patch-clamp, HEK 293 cells transiently co-expressing hTRPC4 and hTRPC1", "type": "cell-based", "design": "expressed in transfected cells; host or cells: HEK 293 (transient co-expression)", "conditions": "30 nM EA; at 3 to 100 nM AM237", "experimental": "For electrophysiology experiments, cells were plated at a low density of 20–30% onto round or square glass coverslips (13 mm diameter or 5 × 5 mm), and TRPC expression in HEK T‐REx was induced with 1 μg·ml^−1 tetracycline 24 hr before experimentation. Experiments were carried out at room temperature. Extracellular solution consisted of SBS. Patch‐clamp recordings were performed in whole‐cell mode (Figure S7) and in excised outside‐out patch mode under voltage clamp at room temperature using 2–4 MΩ patch pipettes fabricated from borosilicate glass capillaries with an outside diameter of 1 mm and an inside diameter of 0.58 mm (Harvard Apparatus). The voltage protocol comprised voltage ramps applied from −100 to +100 mV every 10 s from a holding potential of 0 mV. The patch‐clamp currents were recorded using Axopatch 200B or HEKA EPC‐800 amplifiers, digitized by a Digidata 1440 or PCI6229 (National Instruments Japan, Tokyo, Japan) and recorded to a computer using pCLAMP10 (Molecular Devices) or WinWCPV4.5 (developed by Dr John Dempster, University of Strathclyde, UK). The data were filtered at 1 kHz and analysed offline using Clampfit 10.2 software or WinWCPV4.5 and Origin 9.1 software (OriginLab, Northampton, MA). […]"}, "wild-type HEK 293 cells": {"test_system": "wild-type HEK 293 cells", "assay": "[Ca2+]i measurement in wild-type HEK 293 cells", "type": "cell-based, human", "conditions": "0.3–300 nM", "experimental": "Intracellular concentration of Ca^2+ ([Ca^2+]i) recordings were carried out using the ratiometric Ca^2+ dye Fura‐2; 24 hr before experiments, cells were plated onto black, clear bottom poly‐D‐lysine coated 96‐well plates, and for T‐REx cells, TRPM2 or TRPC1/4/5 protein expression was induced with 1 μg·ml^−1 tetracycline at this point. All cells were used at 90% confluence. To load cells with the Fura‐2 dye, media was removed and cells were incubated with standard bath solution (SBS; composition, in mM, NaCl 130, KCl 5, glucose 8, HEPES 10, MgCl2 1.2, and CaCl2 1.5) containing 2‐μM Fura‐2 acetoxymethyl ester (Fura‐2 AM) and 0.01% pluronic acid for 1 hr at 37°C. For CHO cells stably expressing TRPV4 protein, probenecid (final concentration 2.5 mM) was present in all buffers used from the point of Fura‐2 AM application. After this incubation, cells were washed with fresh SBS and incubated at room temperature for a further 30 min. SBS was then changed to recording buffer (SBS with 0.01% pluronic acid and 0.1% DMSO to match compound buffer) immediately prior to experimentation. In the case of inhibitor studies, cells were washed twice with fresh SBS after incubation with Fura‐2 AM, followed by the addition of SBS with 0.01% pluronic acid and the relevant inhibitor or vehicle. Cells were then incubated for 30 min prior to the experiment. […]"}}, "data": [{"smiles": "Cn1c(=O)n(CCCO)c(=O)c2c1nc(Oc1ccc(Cl)c(OC(F)(F)F)c1)n2Cc1ccc(Cl)cc1", "note": "[AM237]", "values": [{"measurement": "Effect on whole-cell currents at +100 and -100 mV", "setting": "WT HEK 293 cells", "result": "no significant effect"}, {"measurement": "Activation or inhibition of TRPC6", "setting": "TRPC6", "result": "no activation or inhibition"}, {"measurement": "Inhibition of currents induced by EA", "setting": "TRPC4:C1 channels", "result": "full inhibition"}, {"measurement": "Effect on [Ca2+]i in wild-type HEK 293 cells", "setting": "wild-type HEK 293 cells", "result": "did not increase"}]}]}
